Reference: patent US11834481B1, “Salty taste enhancing peptide derived from dry-cured ham and preparation method thereof” (Hefei University of Technology, priority 2022, dated 2023)

Assay: sensory evaluation of purified components for salty taste enhancing effect
Conditions: components purified from Jinhua dry-cured ham crude peptides (Sephadex G-15, DEAE anion column); sensory evaluation with electronic tongue-assisted analysis
Protocol: The crude polypeptides obtained in S2 were dissolved in pure water, filtered by 0.22 μm of aqueous phase membrane, and then loaded onto a Sephadex G-15 gel filtration column (3.0×200 cm) for purification at 25° C. Specific chromatographic parameters: the sample mass concentration was 40 mg/mL; the injection volume was 200 μL; the eluent was 0.01 M of hydrochloric acid buffer solution at a flow rate of 0.5 mL/min, the primary UV ultraviolet detection wavelength was 214 nm, and the secondary UV ultraviolet detection wavelength was 250 nm. All purified components were subject to a sensory evaluation according to their respective chromatographic peaks. […]

In the case of Asp-Leu [Asp-Leu (DL)], the “salty taste enhancing effect” value is reported as “optimal salty taste enhancing effect”.
